Data published in patent US9844217B2, “Allomone repulsive and kairomone attractive compositions for controlling arachnids” (Fideline, priority 2002, dated 2017).

Test system: chicken mites
Assay: Tests for resistance to other miticides
Set-up: species or system Dermanyssus gallinae
Conditions: for % deaths 1× dose: 1× the dose on the product's instructions; for % deaths 4× dose: 4× the commercial dose; for % deaths 8× dose: 8× the commercial dose; for % deaths 16× dose: 16× the commercial dose; for % deaths 32× Dose: 32× the commercial dose
Excerpt: The doses were chosen at 1 to 32 times the dose commercially given on the products' instructions.

SMILES | % deaths 1× dose [%] | % deaths 1× dose (listed as Amitraze) | % deaths 4× dose [%] | % deaths 8× dose [%] | % deaths 16× dose [%] | % deaths 32× Dose [%] | % deaths 4× dose (listed as Aphamethrine) [%]
Cc1ccc(/N=C/N(C)/C=N/c2ccc(C)cc2C)c(C)c1 [Amitraz] | 97.4 | most efficient miticide | 98.5 | 100.00 | 100.00 | 100.0 | –
CC1(C)C(C=C(Cl)Cl)C1C(=O)OC(C#N)c1cccc(Oc2ccccc2)c1 (stereo not drawn) [Aplhamethrine] | 48.1 | – | 85.2 | 97.0 | 98.9 | 99.6 | 85
COP(=O)(OC)SCn1c(=O)oc2cc(Cl)cnc21 [Azamethiphos] | 30.0 | – | 43.3 | 54.8 | 100.00 | 97.8 | –
CNC(=O)Oc1cccc2ccccc12 [Carbaryl] | 19.3 | – | 37.8 | 64.4 | 91.1 | 97.8 | –
COP(=O)(OC)C(O)C(Cl)(Cl)Cl (stereo not drawn) [Trichlorfon] | 20.4 | – | 39.7 | 34.4 | 80.8 | 94.4 | –
